Reference: article PMC10207715, “Dual inhibition of IDO1/TDO2 enhances anti-tumor immunity in platinum-resistant non-small cell lung cancer” (Cancer & Metabolism, 2023)

What was measured:
[1] = target: T1, indoleamine 2,3-dioxygenase-1 (IDO1) (Homo sapiens, UniProt P14902); assay: cellular kynurenine colorimetric assay in LLC-hIDO1 cells, […] h; assay type: cell-based
T1 construct: human IDO1 in expression vector F279-V5/hIDO1, stably transfected in LLC cells

[2] = target: T2, tryptophan 2,3-dioxygenase-2 (TDO2) (Homo sapiens, UniProt P48775); assay: cellular kynurenine colorimetric assay in GL261-hTDO2 cells, […] h; assay type: cell-based
T2 construct: full-length human TDO2, overexpressed in GL261 cells
T2 sequence (P48775 whole entry): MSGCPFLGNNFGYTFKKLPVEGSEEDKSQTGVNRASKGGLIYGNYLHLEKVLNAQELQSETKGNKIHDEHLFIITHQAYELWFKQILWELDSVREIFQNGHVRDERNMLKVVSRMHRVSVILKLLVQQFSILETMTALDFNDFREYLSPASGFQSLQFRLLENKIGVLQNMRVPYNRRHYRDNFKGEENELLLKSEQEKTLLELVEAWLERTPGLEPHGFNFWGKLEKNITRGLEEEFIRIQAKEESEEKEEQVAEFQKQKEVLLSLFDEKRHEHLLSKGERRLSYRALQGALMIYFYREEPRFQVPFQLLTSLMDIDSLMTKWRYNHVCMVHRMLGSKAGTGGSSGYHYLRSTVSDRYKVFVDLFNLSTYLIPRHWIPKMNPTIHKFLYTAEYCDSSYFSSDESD

T1 sequence (P14902 whole entry): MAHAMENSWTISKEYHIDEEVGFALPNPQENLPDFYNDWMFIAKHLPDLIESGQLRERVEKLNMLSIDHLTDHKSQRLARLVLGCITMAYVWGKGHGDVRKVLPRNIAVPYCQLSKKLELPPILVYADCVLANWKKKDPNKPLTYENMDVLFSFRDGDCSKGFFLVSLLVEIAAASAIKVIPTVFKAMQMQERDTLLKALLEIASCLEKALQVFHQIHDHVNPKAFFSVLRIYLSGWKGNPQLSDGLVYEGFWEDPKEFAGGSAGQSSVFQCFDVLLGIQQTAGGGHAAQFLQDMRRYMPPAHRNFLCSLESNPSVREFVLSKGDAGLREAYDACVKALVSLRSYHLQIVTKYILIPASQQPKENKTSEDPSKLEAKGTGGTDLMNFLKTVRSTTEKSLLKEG

IC50 [1]: 0.17 µM | IC50 [2]: 0.25 µM
Substance: AT-0174
